From patent US12440496B2, “Natriuretic peptide receptor a agonists useful for the treatment of cardiometabolic diseases, kidney disease and diabetes” (Merck Sharp & Dohme LLC, priority 2019, dated 2025)

target: T1, hNPRA (Homo sapiens, UniProt P16066); assay: NPRA Functional Cell Assay (cGMP HTRF, NPRA HEK JumpIn stable cells); format: cell-based; details: cGMP production, 1 hour at 37° C., 10-point dose response
T1 construct: expressed in transfected cells
T1 sequence (P16066 33-1061): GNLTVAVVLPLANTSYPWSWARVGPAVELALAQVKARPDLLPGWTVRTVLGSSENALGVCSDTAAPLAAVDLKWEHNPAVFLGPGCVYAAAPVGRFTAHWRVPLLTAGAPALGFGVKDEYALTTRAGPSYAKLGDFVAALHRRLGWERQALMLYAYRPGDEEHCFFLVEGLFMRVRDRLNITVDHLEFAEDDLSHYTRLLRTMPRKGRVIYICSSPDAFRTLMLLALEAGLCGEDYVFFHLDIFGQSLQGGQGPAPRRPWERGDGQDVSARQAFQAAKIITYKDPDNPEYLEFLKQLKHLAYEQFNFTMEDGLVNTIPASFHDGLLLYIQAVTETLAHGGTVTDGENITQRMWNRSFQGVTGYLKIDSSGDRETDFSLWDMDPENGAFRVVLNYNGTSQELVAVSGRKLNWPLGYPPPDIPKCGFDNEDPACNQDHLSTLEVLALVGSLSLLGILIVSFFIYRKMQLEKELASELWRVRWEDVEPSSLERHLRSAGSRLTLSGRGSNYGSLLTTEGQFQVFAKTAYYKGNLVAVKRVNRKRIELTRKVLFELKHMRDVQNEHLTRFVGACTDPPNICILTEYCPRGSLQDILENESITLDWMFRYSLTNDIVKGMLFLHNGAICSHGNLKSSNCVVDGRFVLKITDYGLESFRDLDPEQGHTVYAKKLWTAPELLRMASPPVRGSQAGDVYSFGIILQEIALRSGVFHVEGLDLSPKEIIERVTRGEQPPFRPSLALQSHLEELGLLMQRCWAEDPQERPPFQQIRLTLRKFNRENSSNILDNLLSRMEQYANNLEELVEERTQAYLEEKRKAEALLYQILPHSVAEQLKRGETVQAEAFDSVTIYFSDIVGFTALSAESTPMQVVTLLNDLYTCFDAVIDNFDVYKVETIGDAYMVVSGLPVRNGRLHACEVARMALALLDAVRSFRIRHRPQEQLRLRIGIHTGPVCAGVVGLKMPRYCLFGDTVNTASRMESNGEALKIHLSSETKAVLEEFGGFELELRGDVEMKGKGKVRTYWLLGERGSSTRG
Procedure, shortened: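 cGMP HTRF read-out after 1 hour compound treatment at 37° C. of human NPRA-expressing HEK JumpIn cells, 1500 cells/well, in buffer with phosphodiesterase inhibitors IBMX and RO20 (100 uM each). Signal converted to [cGMP] by calibration curve; EC50s fitted by 4-parameter logistic; 50 nM h-ANP as positive response.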

Question: CN1CCC(CNC(=O)c2cccc([C@@H](CCN3CCC(O)CC3)NC(=O)c3nc4cc5c(nc4s3)CC[C@H](C(C)(C)C)C5)c2)C1 (mixture of isomers) [Example 142, rac-(7S)-7-tert-butyl-N-[rac-(1R)-3-(4-hydroxy-1-piperidyl)-1-[3-[(1-methylpyrrolidin-3-yl)methylcarbamoyl]phenyl]propyl]-5,6,7,8-tetrahydrothiazolo[5,4-b]quinoline-2-carboxamide] was tested. Which EC50 did it give?
Answer: 258 nM

Question: CC(C)(C)[C@H]1CCc2nc3sc(C(=O)N[C@H](CCN4CCC(O)CC4)c4cccc(C(=O)NC5CCCNC5)c4)nc3cc2C1 (mixture of isomers) [Example 143, rac-(7S)-7-tert-butyl-N-[rac-(1R)-3-(4-hydroxy-1-piperidyl)-1-[3-(3-piperidylcarbamoyl)phenyl]propyl]-5,6,7,8-tetrahydrothiazolo[5,4-b]quinoline-2-carboxamide] was tested. Which EC50 did it give?
Answer: 276 nM

Question: How did the EC50 turn out when CN1C(=O)OCC12CN(C(=O)c1cccc([C@@H](CCN3CCC(O)CC3)NC(=O)c3nc4cc5c(nc4s3)CC[C@H](C(C)(C)C)C5)c1)C2 (racemic) [Example 144, rac-(7S)-7-tert-butyl-N-[rac-(1R)-3-(4-hydroxy-1-piperidyl)-1-[3-(5-methyl-6-oxo-7-oxa-2,5-diazaspiro[3.4]octane-2-carbonyl)phenyl]propyl]-5,6,7,8-tetrahydrothiazolo[5,4-b]quinoline-2-carboxamide] was run?
Answer: 462 nM

Question: Which EC50 does the source give for CC1(O)CN(C(=O)c2cccc([C@@H](CCN3CCC(O)CC3)NC(=O)c3nc4cc5c(nc4s3)CC[C@H](C(C)(C)C)C5)c2)C1 (racemic) [Example 145, rac-(7S)-7-tert-butyl-N-[rac-(1R)-1-[3-(3-hydroxy-3-methyl-azetidine-1-carbonyl)phenyl]-3-(4-hydroxy-1-piperidyl)propyl]-5,6,7,8-tetrahydrothiazolo[5,4-b]quinoline-2-carboxamide] here?
Answer: 553 nM

Question: With CC(C)(C)[C@H]1CCc2nc3sc(C(=O)N[C@H](CCN4CCC(O)CC4)c4cccc(C(=O)N5CCC6NCCC65)c4)nc3cc2C1 (mixture of isomers) [Example 146, rac-(7S)-7-tert-butyl-N-[rac-(1R)-1-[3-(2,3,3a,5,6,6a-hexahydro-1H-pyrrolo[3,2-b]pyrrole-4-carbonyl)phenyl]-3-(4-hydroxy-1-piperidyl)propyl]-5,6,7,8-tetrahydrothiazolo[5,4-b]quinoline-2-carboxamide] as the molecule, how does the EC50 read?
Answer: 607 nM

Question: With CC(C)(C)[C@H]1CCc2nc3sc(C(=O)N[C@H](CCN4CCC(O)CC4)c4cccc(C(=O)N5CC(N)C5)c4)nc3cc2C1 (racemic) [Example 147, rac-(7S)-7-tert-butyl-N-[rac-(1R)-1-[3-(3-aminoazetidine-1-carbonyl)phenyl]-3-(4-hydroxy-1-piperidyl)propyl]-5,6,7,8-tetrahydrothiazolo[5,4-b]quinoline-2-carboxamide] as the molecule, how does the EC50 read?
Answer: 640 nM

Question: For CN(C)C1CN(C(=O)c2cccc([C@@H](CCN3CCC(O)CC3)NC(=O)c3nc4cc5c(nc4s3)CC[C@H](C(C)(C)C)C5)c2)C1 (racemic) [Example 148, rac-(7S)-7-tert-butyl-N-[rac-(1R)-1-[3-[3-(dimethylamino)azetidine-1-carbonyl]phenyl]-3-(4-hydroxy-1-piperidyl)propyl]-5,6,7,8-tetrahydrothiazolo[5,4-b]quinoline-2-carboxamide], which EC50 is on record?
Answer: 656 nM

Question: Which EC50 does the source give for CN1CC(NC(=O)c2cccc([C@@H](CCN3CCC(O)CC3)NC(=O)c3nc4cc5c(nc4s3)CC[C@H](C(C)(C)C)C5)c2)CC1=O (mixture of isomers) [Example 149, rac-(7S)-7-tert-butyl-N-[rac-(1R)-3-(4-hydroxy-1-piperidyl)-1-[3-[(1-methyl-5-oxo-pyrrolidin-3-yl)carbamoyl]phenyl]propyl]-5,6,7,8-tetrahydrothiazolo[5,4-b]quinoline-2-carboxamide] here?
Answer: 656 nM

Question: How did the EC50 turn out when CC(C)(C)[C@H]1CCc2nc3sc(C(=O)N[C@H](CCN4CCC(O)CC4)c4cccc(C(=O)NCCN5CCOCC5)c4)nc3cc2C1 (racemic) [Example 150, rac-(7S)-7-tert-butyl-N-[rac-(1R)-3-(4-hydroxy-1-piperidyl)-1-[3-(2-morpholinoethylcarbamoyl)phenyl]propyl]-5,6,7,8-tetrahydrothiazolo[5,4-b]quinoline-2-carboxamide] was run?
Answer: 682 nM

Question: How did the EC50 turn out when CC(C)(C)[C@H]1CCc2nc3sc(C(=O)N[C@H](CCN4CCC(O)CC4)c4cccc(C(=O)NCCO)c4)nc3cc2C1 (racemic) [Example 151, rac-(7S)-7-tert-butyl-N-[rac-(1R)-1-[3-(2-hydroxyethylcarbamoyl)phenyl]-3-(4-hydroxy-1-piperidyl)propyl]-5,6,7,8-tetrahydrothiazolo[5,4-b]quinoline-2-carboxamide] was run?
Answer: 682 nM

Question: How did the EC50 turn out when CC(C)(C)[C@H]1CCc2nc3sc(C(=O)N[C@H](CCN4CCC(O)CC4)c4cccc(C(=O)NCC5CCNC5)c4)nc3cc2C1 (mixture of isomers) [Example 152, rac-(7S)-7-tert-butyl-N-[rac-(1R)-3-(4-hydroxy-1-piperidyl)-1-[3-(pyrrolidin-3-ylmethylcarbamoyl)phenyl]propyl]-5,6,7,8-tetrahydrothiazolo[5,4-b]quinoline-2-carboxamide] was run?
Answer: 686 nM

Question: Which EC50 does the source give for CC(C)(C)[C@H]1CCc2nc3sc(C(=O)N[C@H](CCN4CCC(O)CC4)c4cccc(C(=O)N5CC(O)(C(F)(F)F)C5)c4)nc3cc2C1 (racemic) [Example 153, rac-(7S)-7-tert-butyl-N-[rac-(1R)-3-(4-hydroxy-1-piperidyl)-1-[3-[3-hydroxy-3-(trifluoromethyl)azetidine-1-carbonyl]phenyl]propyl]-5,6,7,8-tetrahydrothiazolo[5,4-b]quinoline-2-carboxamide] here?
Answer: 716 nM

Question: For CC(C)(C)[C@H]1CCc2nc3sc(C(=O)N[C@H](CCN4CCC(O)CC4)c4cccc(C(=O)NC5CCNC5=O)c4)nc3cc2C1 (mixture of isomers) [Example 154, rac-(7S)-7-tert-butyl-N-[rac-(1R)-3-(4-hydroxy-1-piperidyl)-1-[3-[(2-oxopyrrolidin-3-yl)carbamoyl]phenyl]propyl]-5,6,7,8-tetrahydrothiazolo[5,4-b]quinoline-2-carboxamide], which EC50 is on record?
Answer: 721 nM

Question: Which EC50 does the source give for CC(C)(C)[C@H]1CCc2nc3sc(C(=O)N[C@H](CCN4CCC(O)CC4)c4cccc(C(=O)NC5CNC(=O)C5)c4)nc3cc2C1 (mixture of isomers) [Example 155, rac-(7S)-7-tert-butyl-N-[rac-(1R)-3-(4-hydroxy-1-piperidyl)-1-[3-[(5-oxopyrrolidin-3-yl)carbamoyl]phenyl]propyl]-5,6,7,8-tetrahydrothiazolo[5,4-b]quinoline-2-carboxamide] here?
Answer: 766 nM

Question: CC(C)(C)[C@H]1CCc2nc3sc(C(=O)N[C@H](CCN4CCC(O)CC4)c4cccc(C(=O)N5CC(O)C5)c4)nc3cc2C1 (racemic) [Example 156, rac-(7S)-7-tert-butyl-N-[rac-(1R)-1-[3-(3-hydroxyazetidine-1-carbonyl)phenyl]-3-(4-hydroxy-1-piperidyl)propyl]-5,6,7,8-tetrahydrothiazolo[5,4-b]quinoline-2-carboxamide] was tested. Which EC50 did it give?
Answer: 830 nM

Question: CC(C)(C)[C@H]1CCc2nc3sc(C(=O)N[C@H](CCN4CCC(O)CC4)c4cccc(C(=O)N5CC(N6CCOCC6)C5)c4)nc3cc2C1 (racemic) [Example 157, rac-(7S)-7-tert-butyl-N-[rac-(1R)-3-(4-hydroxy-1-piperidyl)-1-[3-(3-morpholinoazetidine-1-carbonyl)phenyl]propyl]-5,6,7,8-tetrahydrothiazolo[5,4-b]quinoline-2-carboxamide] was tested. Which EC50 did it give?
Answer: 876 nM

Question: For CN1CC(NC(=O)c2cccc([C@@H](CCN3CCC(O)CC3)NC(=O)c3nc4cc5c(nc4s3)CC[C@H](C(C)(C)C)C5)c2)CCC1=O (mixture of isomers) [Example 158, rac-(7S)-7-tert-butyl-N-[rac-(1R)-3-(4-hydroxy-1-piperidyl)-1-[3-[(1-methyl-6-oxo-3-piperidyl)carbamoyl]phenyl]propyl]-5,6,7,8-tetrahydrothiazolo[5,4-b]quinoline-2-carboxamide], which EC50 is on record?
Answer: 890 nM

Question: For CN1CC(CNC(=O)c2cccc([C@@H](CCN3CCC(O)CC3)NC(=O)c3nc4cc5c(nc4s3)CC[C@H](C(C)(C)C)C5)c2)CC1=O (mixture of isomers) [Example 159, rac-(7S)-7-tert-butyl-N-[rac-(1R)-3-(4-hydroxy-1-piperidyl)-1-[3-[(1-methyl-5-oxo-pyrrolidin-3-yl)methylcarbamoyl]phenyl]propyl]-5,6,7,8-tetrahydrothiazolo[5,4-b]quinoline-2-carboxamide], which EC50 is on record?
Answer: 901 nM
